According to the supplement of paper PMC10307832:

What was measured:
Assay in all cases: relative viability (nuclei count vs DMSO), 5 days (fraction); higher = more cells survive
Pictilisib + Trametinib = compound: CS(=O)(=O)N1CCN(Cc2cc3nc(-c4cccc5[nH]ncc45)nc(N4CCOCC4)c3s2)CC1 [Pictilisib] + CC(=O)Nc1cccc(-n2c(=O)n(C3CC3)c(=O)c3c(Nc4ccc(I)cc4F)n(C)c(=O)c(C)c32)c1 [Trametinib] (partner 0.02 µM)
Summary of the method: (§1)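 For relative viability, nuclei counts in treated wells were divided by those in vehicle wells. Lung cancer cell lines had been pin-tool dosed in 1536-well plates the day after seeding and cultured for 5 days, then fixed and stained in one step (final 0.05% Triton X-100, 1% formaldehyde, 1 ug/ml Hoechst) and imaged at 4×. Doses were one drug alone or a fixed anchor-drug dose plus five library-drug doses (not always all listed) in √10 steps, and values are duplicate-plate medians.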

MK-2206 + Bortezomib = compound: NC1(c2ccc(-c3nc4ccn5c(=O)[nH]nc5c4cc3-c3ccccc3)cc2)CCC1 [MK-2206] + CC(C)C[C@H](NC(=O)[C@H](Cc1ccccc1)NC(=O)c1cnccn1)B(O)O [Bortezomib] (partner 0.002 µM)
Summary of the method: as §1

MK-2206 + Lapatinib = compound: NC1(c2ccc(-c3nc4ccn5c(=O)[nH]nc5c4cc3-c3ccccc3)cc2)CCC1 [MK-2206] + CS(=O)(=O)CCNCc1ccc(-c2ccc3ncnc(Nc4ccc(OCc5cccc(F)c5)c(Cl)c4)c3c2)o1 [Lapatinib] (partner 2 µM)
Summary of the method: as §1

Pictilisib + Pemetrexed = compound: CS(=O)(=O)N1CCN(Cc2cc3nc(-c4cccc5[nH]ncc45)nc(N4CCOCC4)c3s2)CC1 [Pictilisib] + Nc1nc2[nH]cc(CCc3ccc(C(=O)N[C@@H](CCC(=O)O)C(=O)O)cc3)c2c(=O)[nH]1 [Pemetrexed] (partner 0.2 µM)
Summary of the method: as §1

MK-2206 + Linsitinib = compound: NC1(c2ccc(-c3nc4ccn5c(=O)[nH]nc5c4cc3-c3ccccc3)cc2)CCC1 [MK-2206] + C[C@]1(O)C[C@@H](c2nc(-c3ccc4ccc(-c5ccccc5)nc4c3)c3c(N)nccn32)C1 [Linsitinib] (partner 1 µM)
Summary of the method: as §1

Cell Line | relative viability (Pictilisib + Trametinib; first compound 0.02 µM) | relative viability (Pictilisib + Trametinib; first compound 0.06325 µM) | relative viability (Pictilisib + Trametinib; first compound 0.6325 µM) | relative viability (Pictilisib + Trametinib; first compound 2 µM) | relative viability (MK-2206 + Bortezomib; first compound 0.01 µM) | relative viability (MK-2206 + Bortezomib; first compound 0.03162 µM) | relative viability (MK-2206 + Bortezomib; first compound 0.3162 µM) | relative viability (MK-2206 + Bortezomib; first compound 1 µM) | relative viability (MK-2206 + Lapatinib; first compound 0.01 µM) | relative viability (MK-2206 + Lapatinib; first compound 0.03162 µM) | relative viability (MK-2206 + Lapatinib; first compound 0.3162 µM) | relative viability (MK-2206 + Lapatinib; first compound 1 µM) | relative viability (Pictilisib + Pemetrexed; first compound 0.02 µM) | relative viability (Pictilisib + Pemetrexed; first compound 0.06325 µM) | relative viability (Pictilisib + Pemetrexed; first compound 0.6325 µM) | relative viability (Pictilisib + Pemetrexed; first compound 2 µM) | relative viability (MK-2206 + Linsitinib; first compound 0.01 µM) | relative viability (MK-2206 + Linsitinib; first compound 0.03162 µM) | relative viability (MK-2206 + Linsitinib; first compound 0.3162 µM) | relative viability (MK-2206 + Linsitinib; first compound 1 µM)
EMC-BAC-2 | 0.863 | 0.869 | 0.685 | 0.513 | 1.08 | 1.04 | 1.06 | 0.865 | 0.859 | 0.959 | 0.901 | 0.805 | 0.45 | 0.451 | 0.424 | 0.41 | 0.811 | 0.821 | 0.769 | 0.748
A-427 | 0.733 | 0.716 | 0.505 | 0.287 | 0.912 | 1 | 1.02 | 0.931 | 1.11 | 1.03 | 1.09 | 1.12 | 0.955 | 0.984 | 0.969 | 0.803 | 1.13 | 1.09 | 1.14 | 1.17
NCI-H520 | 0.57 | 0.64 | 0.215 | 0.14 | 0.485 | 0.675 | 0.431 | 0.242 | 0.85 | 0.874 | 0.415 | 0.238 | 0.613 | 0.624 | 0.268 | 0.148 | 1.13 | 0.933 | 0.52 | 0.542
NCI-H650 | 1.03 | 0.969 | 0.8 | 0.5 | 0.898 | 0.932 | 0.642 | 0.656 | 0.985 | 1.07 | 0.874 | 0.721 | 1.02 | 0.887 | 0.701 | 0.525 | 0.809 | 1.04 | 0.798 | 0.791
COR-L 105 | 0.382 | 0.4 | 0.432 | 0.38 | 0.766 | 0.725 | 0.997 | 0.843 | 0.382 | 0.42 | 0.317 | 0.335 | 1.19 | 1.04 | 1.22 | 0.885 | 0.941 | 0.895 | 0.67 | 0.629
NCI-H1755 | 0.821 | 0.667 | 0.718 | 0.327 | 0.96 | 0.99 | 0.838 | 0.689 | 1.02 | 1.05 | 0.965 | 0.962 | 0.472 | 0.397 | 0.396 | 0.329 | 0.997 | 0.996 | 0.903 | 0.876
NCI-H2085 | 0.443 | 0.471 | 0.2 | 0.26 | 1.06 | 1.12 | 0.929 | 0.716 | 0.773 | 0.81 | 0.605 | 0.467 | 0.826 | 0.911 | 0.401 | 0.303 | 0.915 | 0.85 | 0.815 | 0.692
NCI-H2023 | 0.52 | 0.404 | 0.315 | 0.172 | 0.958 | 0.838 | 0.778 | 0.612 | 0.827 | 0.818 | 0.708 | 0.492 | 0.195 | 0.228 | 0.171 | 0.105 | 0.642 | 0.586 | 0.438 | 0.312
HOP-62 | 0.396 | 0.356 | 0.332 | 0.178 | 0.726 | 0.759 | 0.429 | 0.743 | 0.946 | 1.12 | 0.939 | 1.26 | 0.319 | 0.271 | 0.267 | 0.271 | 0.783 | 0.757 | 1.01 | 0.998
